This passage reports Ki results from ChEMBL document CHEMBL1133232, “The design and synthesis of thrombin inhibitors: analogues of MD805 containing non-polar surrogates for arginine at the P1 position” (Bioorg Med Chem Lett, 2000).

By Ki is commonly meant a measure of affinity in units of concentration, obtained from inhibition or displacement. Low readings indicate tighter binding, high ones weaker binding.

Test [1] deals with Prothrombin (Homo sapiens, UniProt P00734). As to the kind of experiment: Compound was evaluated for its inhibitory activity against Thrombin.
Test [2] deals with Serine protease 1 (Homo sapiens, UniProt P07477). As to the kind of experiment: Compound was evaluated for its inhibitory activity against Trypsin.
Serine protease 1, sequence (P07477 whole entry): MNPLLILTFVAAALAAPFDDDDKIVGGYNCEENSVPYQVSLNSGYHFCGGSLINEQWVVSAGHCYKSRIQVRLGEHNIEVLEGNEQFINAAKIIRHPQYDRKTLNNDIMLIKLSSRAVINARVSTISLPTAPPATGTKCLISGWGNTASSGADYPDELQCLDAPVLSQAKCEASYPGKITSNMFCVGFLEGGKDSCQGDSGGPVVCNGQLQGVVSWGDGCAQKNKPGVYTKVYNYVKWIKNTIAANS
Test [3] addresses Plasminogen (Homo sapiens, UniProt P00747). As to the kind of experiment: Compound was evaluated for its inhibitory activity against plasmin.
Test [4] addresses Coagulation factor X (Homo sapiens, UniProt P00742). As to the kind of experiment: Compound was evaluated for its inhibitory activity against Coagulation factor X.
Test [5] has as its target Kallikrein-1 (Homo sapiens, UniProt P06870). As to the kind of experiment: Compound was evaluated for its inhibitory activity against kallikrein.

A value given as a limit tells only on which side of the number the result lay.

Coagulation factor X, sequence (P00742 41-179 limits assumed): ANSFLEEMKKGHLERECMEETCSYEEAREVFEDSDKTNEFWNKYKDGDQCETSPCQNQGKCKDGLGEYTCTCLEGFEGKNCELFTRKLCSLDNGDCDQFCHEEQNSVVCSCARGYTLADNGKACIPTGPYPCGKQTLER
Coagulation factor X, sequence (P00742 235-488 limits assumed): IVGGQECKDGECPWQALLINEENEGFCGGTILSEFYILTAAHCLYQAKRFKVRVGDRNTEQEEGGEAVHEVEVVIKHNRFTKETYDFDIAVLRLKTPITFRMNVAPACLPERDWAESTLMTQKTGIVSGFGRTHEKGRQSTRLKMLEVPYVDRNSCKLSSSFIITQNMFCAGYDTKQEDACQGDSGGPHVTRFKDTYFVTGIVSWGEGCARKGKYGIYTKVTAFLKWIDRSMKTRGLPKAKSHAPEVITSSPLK
Plasminogen, sequence (P00747 97-580 limits assumed): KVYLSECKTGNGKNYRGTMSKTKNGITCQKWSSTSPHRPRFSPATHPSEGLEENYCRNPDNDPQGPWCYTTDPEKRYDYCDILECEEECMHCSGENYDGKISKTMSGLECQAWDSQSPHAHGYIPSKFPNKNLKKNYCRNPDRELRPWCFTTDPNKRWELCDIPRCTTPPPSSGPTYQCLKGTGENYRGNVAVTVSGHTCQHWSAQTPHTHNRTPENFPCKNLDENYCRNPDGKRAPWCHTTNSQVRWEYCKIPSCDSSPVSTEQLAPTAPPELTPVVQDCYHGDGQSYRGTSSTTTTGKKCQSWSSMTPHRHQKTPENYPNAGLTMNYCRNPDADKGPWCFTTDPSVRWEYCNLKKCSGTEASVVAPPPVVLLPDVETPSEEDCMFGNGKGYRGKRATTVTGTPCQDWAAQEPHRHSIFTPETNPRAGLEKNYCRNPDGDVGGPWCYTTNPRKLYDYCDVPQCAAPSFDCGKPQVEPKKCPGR
Plasminogen, sequence (P00747 581-810 limits assumed): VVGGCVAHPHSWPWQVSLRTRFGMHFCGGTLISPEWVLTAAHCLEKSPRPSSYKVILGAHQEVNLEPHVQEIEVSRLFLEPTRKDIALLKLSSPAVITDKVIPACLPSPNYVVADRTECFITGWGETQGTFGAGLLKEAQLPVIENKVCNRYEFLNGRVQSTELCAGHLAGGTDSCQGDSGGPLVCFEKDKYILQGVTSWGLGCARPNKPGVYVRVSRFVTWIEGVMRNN
Kallikrein-1, sequence (P06870 whole entry): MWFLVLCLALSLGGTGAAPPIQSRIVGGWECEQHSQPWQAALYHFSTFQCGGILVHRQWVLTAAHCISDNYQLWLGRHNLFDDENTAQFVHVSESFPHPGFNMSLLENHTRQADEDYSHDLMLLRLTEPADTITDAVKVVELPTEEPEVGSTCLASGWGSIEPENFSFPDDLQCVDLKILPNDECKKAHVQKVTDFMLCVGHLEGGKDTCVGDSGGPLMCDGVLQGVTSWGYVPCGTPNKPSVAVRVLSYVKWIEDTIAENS

In turn, `CC(=O)OCCC1CCN(C(=O)C(Cc2nc3ccccc3[nH]2)NS(=O)(=O)c2cccc3c2NCC(C)(C)C3)CC1` (centres undefined) came in with a Ki in test [1] of 0.452 µM. Take `CC1(C)CNc2c(cccc2S(=O)(=O)NC(Cc2nc3ccccc3s2)C(=O)N2CCC(CCO)CC2)C1` (centres undefined): in test [1], the affinity corresponds to a Ki of 0.0798 µM. In the case of `CC1CNc2c(cccc2S(=O)(=O)N[C@@H](Cc2nc3ccccc3s2)C(=O)N2CCC(CCO)CC2)C1` (stereo in doubt; 33), the Ki in test [2] was 126 µM; in test [3], 109 µM; in test [1], 0.118 µM; in test [4], 45 µM; in test [5] it was greater than 45 µM. `CC1(C)CNc2c(cccc2S(=O)(=O)N[C@@H](CSCCCN)C(=O)N2CCC(CCO)CC2)C1`: the Ki in test [2] is 1.78 µM; in test [3], 6.2 µM; in test [1], 0.28 µM; in test [4], 87 µM; in test [5], greater than 87 µM. `CC1(C)CNc2c(cccc2S(=O)(=O)NC(Cc2nc(-c3ccccc3)cs2)C(=O)N2CCC(CCO)CC2)C1` (centres undefined) had a Ki in test [1] of 3.28 µM. This lies in the single-digit micromolar range.

For `CC1(C)CNc2c(cccc2S(=O)(=O)N[C@@H](CSCCCN)C(=O)N2CCC(CCF)CC2)C1`, the Ki in test [2] is 1.32 µM; in test [3], 4 µM; in test [1], 0.126 µM; in test [4] it was 87 µM; in test [5], greater than 87 µM. Taken in the same sequence, the figures for `CCC1CCN(C(=O)C(Cc2nc3ccccc3s2)NS(=O)(=O)c2cccc3c2NCC(C)(C)C3)CC1` (centres undefined) were 260 µM, 240 µM, 0.248 µM, 92 µM and 92 µM. For the molecule `CC1(C)CNc2c(cccc2S(=O)(=O)NC(Cc2nc3ccncc3s2)C(=O)N2CCC(CCF)CC2)C1` (centres undefined), the affinity in test [1] corresponds to a Ki of 0.81 µM.

In turn, `CC1(C)CNc2c(cccc2S(=O)(=O)N[C@@H](Cc2cccnc2)C(=O)N2CCC(CCO)CC2)C1` showed a Ki in test [1] of 19.6 µM. This Ki is about 24-fold higher than that of the molecule before. On to `CC1CNc2c(cccc2S(=O)(=O)N[C@@H](CCc2ccccc2)C(=O)N2CCC(CCO)CC2)C1` (some centres undefined), for which the Ki in test [1] was 47.3 µM. The molecule `CC1CNc2c(cccc2S(=O)(=O)N[C@@H](Cc2nc3ccccc3o2)C(=O)N2CCC(CCO)CC2)C1` (some centres undefined) gave a Ki in test [1] of 3.1 µM. Consider `Cc1csc(CC(NS(=O)(=O)c2cccc3c2NCC(C)(C)C3)C(=O)N2CCC(CCO)CC2)n1` (centres undefined), for which the Ki in test [1] came out at 2.19 µM. The Ki values of the last two molecules are within 1.5-fold of each other. Still for that read-out and setting: under `CC1CNc2c(cccc2S(=O)(=O)N[C@@H](Cc2nc3ccccc3s2)C(=O)N2CCC(CCO)CC2)C1` (stereo in doubt; 23) stands 0.118 µM. On the same count and under the same terms, for `CC1CNc2c(cccc2S(=O)(=O)N[C@@H](Cc2c[nH]c3ccccc23)C(=O)N2CCC(CCO)CC2)C1` (some centres undefined) the value was 1.57 µM; for `CC1(C)CNc2c(cccc2S(=O)(=O)NC(Cc2nc3ccccc3s2)C(=O)N2CCC(CCF)CC2)C1` (stereo in doubt), 0.028 µM; for `CC1(C)CNc2c(cccc2S(=O)(=O)NC(Cc2nc(CN)cs2)C(=O)N2CCC(CCO)CC2)C1` (centres undefined), 0.76 µM. As to `CC1(C)CNc2c(cccc2S(=O)(=O)NC(Cc2nc3cncnc3s2)C(=O)N2CCC(CCF)CC2)C1` (centres undefined), the Ki in test [1] is 4.56 µM. Compared with the last molecule, the Ki is about 6-fold higher. Same read-out and setting: under `CC1(C)CNc2c(cccc2S(=O)(=O)NC(Cc2nc3ccccc3s2)C(=O)N2CCC(CCF)CC2)C1` (stereo in doubt; 26) stands 0.026 µM.
